Tests used:
[1] = tested on: NCI-H522; assay: Antiproliferative activity against human NCI-H522 cells assessed as cell growth inhibition at 10 uM incubated for 24 hrs by sulforhodamine B assay; format: functional; conditions: read-out: GI
[2] = tested on: T47D; assay: Antiproliferative activity against human T47D cells assessed as reduction in cell viability incubated for 24 hrs by sulforhodamine B assay; format: functional, cell-based
[3] = tested on: RXF 393; assay: Antiproliferative activity against human RXF 393 cells assessed as cell growth inhibition at 10 uM incubated for 24 hrs by sulforhodamine B assay; format: functional; conditions: read-out: GI
[4] = tested on: MCF7; assay: Antiproliferative activity against human MCF7 cells assessed as reduction in cell viability incubated for 24 hrs by sulforhodamine B assay; format: functional, cell-based; conditions: MCF7, 24 h
[5] = tested on: HL-60; assay: Antiproliferative activity against human HL-60 cells assessed as cell growth inhibition at 10 uM incubated for 24 hrs by sulforhodamine B assay; format: functional; conditions: read-out: GI
[6] = tested on: LOX IMVI; assay: Antiproliferative activity against human LOX IMVI cells assessed as cell growth inhibition at 10 uM incubated for 24 hrs by sulforhodamine B assay; format: functional; conditions: read-out: GI
[7] = tested on: CAKI-1; assay: Antiproliferative activity against human CAKI-1 cells assessed as cell growth inhibition at 10 uM incubated for 24 hrs by sulforhodamine B assay; format: functional; conditions: read-out: GI
[8] = tested on: MDA-MB-231; assay: Antiproliferative activity against human MDA-MB-231 cells assessed as cell growth inhibition at 10 uM incubated for 24 hrs by sulforhodamine B assay; format: functional; conditions: read-out: GI
[9] = tested on: UO-31; assay: Antiproliferative activity against human UO-31 cells assessed as cell growth inhibition at 10 uM incubated for 24 hrs by sulforhodamine B assay; format: functional; conditions: read-out: GI
[10] = tested on: UACC-62; assay: Antiproliferative activity against human UACC-62 cells assessed as cell growth inhibition at 10 uM incubated for 24 hrs by sulforhodamine B assay; format: functional; conditions: read-out: GI
[11] = tested on: 786-0; assay: Antiproliferative activity against human 786-0 cells assessed as cell growth inhibition at 10 uM incubated for 24 hrs by sulforhodamine B assay; format: functional; conditions: read-out: GI
[12] = biological target: Carbonic anhydrase 9 (Homo sapiens, UniProt Q16790); assay: Inhibition of human CA9 preincubated for 15 mins by phenol red dye based stopped flow CO2 hydration assay
[13] = tested on: NCI-H226; assay: Antiproliferative activity against human NCI-H226 cells assessed as cell growth inhibition at 10 uM incubated for 24 hrs by sulforhodamine B assay; format: functional; conditions: read-out: GI
[14] = tested on: MDA-MB-468; assay: Antiproliferative activity against human MDA-MB-468 cells assessed as cell growth inhibition at 10 uM incubated for 24 hrs by sulforhodamine B assay; format: functional; conditions: read-out: GI
[15] = tested on: MCF7; assay: Antiproliferative activity against human MCF7 cells assessed as cell growth inhibition at 10 uM incubated for 24 hrs by sulforhodamine B assay; format: functional; conditions: read-out: GI
[16] = tested on: NCI-H23; assay: Antiproliferative activity against human NCI-H23 cells assessed as cell growth inhibition at 10 uM incubated for 24 hrs by sulforhodamine B assay; format: functional; conditions: read-out: GI
[17] = tested on: MDA-MB-231; assay: Antiproliferative activity against human MDA-MB-231 cells assessed as reduction in cell viability incubated for 24 hrs by sulforhodamine B assay; format: functional, cell-based; conditions: MDA-MB-231, 24 h
[18] = tested on: ACHN; assay: Antiproliferative activity against human ACHN cells assessed as cell growth inhibition at 10 uM incubated for 24 hrs by sulforhodamine B assay; format: functional; conditions: read-out: GI
[19] = tested on: SK-OV-3; assay: Antiproliferative activity against human SK-OV-3 cells assessed as cell growth inhibition at 10 uM incubated for 24 hrs by sulforhodamine B assay; format: functional; conditions: read-out: GI
[20] = tested on: Malme-3M; assay: Antiproliferative activity against human Malme-3M cells assessed as cell growth inhibition at 10 uM incubated for 24 hrs by sulforhodamine B assay; format: functional; conditions: read-out: GI
[21] = tested on: SK-MEL-5; assay: Antiproliferative activity against human SK-MEL-5 cells assessed as cell growth inhibition at 10 uM incubated for 24 hrs by sulforhodamine B assay; format: functional; conditions: read-out: GI
[22] = tested on: SN12C; assay: Antiproliferative activity against human SN12C cells assessed as cell growth inhibition at 10 uM incubated for 24 hrs by sulforhodamine B assay; format: functional; conditions: read-out: GI
[23] = tested on: K562; assay: Antiproliferative activity against human K562 cells assessed as cell growth inhibition at 10 uM incubated for 24 hrs by sulforhodamine B assay; format: functional; conditions: read-out: GI
[24] = tested on: HCT-116; assay: Antiproliferative activity against human HCT-116 cells assessed as cell growth inhibition at 10 uM incubated for 24 hrs by sulforhodamine B assay; format: functional; conditions: read-out: GI
[25] = tested on: T47D; assay: Antiproliferative activity against human T47D cells assessed as cell growth inhibition at 10 uM incubated for 24 hrs by sulforhodamine B assay; format: functional; conditions: read-out: GI
[26] = tested on: MOLT-4; assay: Antiproliferative activity against human MOLT-4 cells assessed as cell growth inhibition at 10 uM incubated for 24 hrs by sulforhodamine B assay; format: functional; conditions: read-out: GI
[27] = tested on: SK-MEL-2; assay: Antiproliferative activity against human SK-MEL-2 cells assessed as cell growth inhibition at 10 uM incubated for 24 hrs by sulforhodamine B assay; format: functional; conditions: read-out: GI
[28] = tested on: EKVX; assay: Antiproliferative activity against human EKVX cells assessed as cell growth inhibition at 10 uM incubated for 24 hrs by sulforhodamine B assay; format: functional; conditions: read-out: GI
[29] = tested on: OVCAR-4; assay: Antiproliferative activity against human OVCAR-4 cells assessed as cell growth inhibition at 10 uM incubated for 24 hrs by sulforhodamine B assay; format: functional; conditions: read-out: GI
[30] = tested on: HCT-15; assay: Antiproliferative activity against human HCT-15 cells assessed as cell growth inhibition at 10 uM incubated for 24 hrs by sulforhodamine B assay; format: functional; conditions: read-out: GI
[31] = tested on: RPMI-8226; assay: Antiproliferative activity against human RPMI-8226 cells assessed as cell growth inhibition at 10 uM incubated for 24 hrs by sulforhodamine B assay; format: functional; conditions: read-out: GI
[32] = biological target: Carbonic anhydrase 2 (Homo sapiens, UniProt P00918); assay: Inhibition of human CA2 preincubated for 15 mins by phenol red dye based stopped flow CO2 hydration assay
[33] = tested on: PC-3; assay: Antiproliferative activity against human PC-3 cells assessed as cell growth inhibition at 10 uM incubated for 24 hrs by sulforhodamine B assay; format: functional; conditions: read-out: GI
[34] = tested on: SF-539; assay: Antiproliferative activity against human SF-539 cells assessed as cell growth inhibition at 10 uM incubated for 24 hrs by sulforhodamine B assay; format: functional; conditions: read-out: GI
[35] = tested on: HT-29; assay: Antiproliferative activity against human HT-29 cells assessed as cell growth inhibition at 10 uM incubated for 24 hrs by sulforhodamine B assay; format: functional; conditions: read-out: GI
[36] = tested on: CCRF-CEM; assay: Antiproliferative activity against human CCRF-CEM cells assessed as cell growth inhibition at 10 uM incubated for 24 hrs by sulforhodamine B assay; format: functional; conditions: read-out: GI
[37] = tested on: COLO 205; assay: Antiproliferative activity against human COLO 205 cells assessed as cell growth inhibition at 10 uM incubated for 24 hrs by sulforhodamine B assay; format: functional; conditions: read-out: GI
[38] = Antiproliferative activity against human […] cells assessed as cell growth inhibition at 10 uM incubated for 24 hrs by sulforhodamine B assay; format: functional; conditions: read-out: GI
[39] = tested on: SR; assay: Antiproliferative activity against human SR cells assessed as cell growth inhibition at 10 uM incubated for 24 hrs by sulforhodamine B assay; format: functional; conditions: read-out: GI
[40] = tested on: KM12; assay: Antiproliferative activity against human KM12 cells assessed as cell growth inhibition at 10 uM incubated for 24 hrs by sulforhodamine B assay; format: functional; conditions: read-out: GI
[41] = tested on: M14; assay: Antiproliferative activity against human M14 cells assessed as cell growth inhibition at 10 uM incubated for 24 hrs by sulforhodamine B assay; format: functional; conditions: read-out: GI
[42] = tested on: A549; assay: Antiproliferative activity against human A549 cells assessed as cell growth inhibition at 10 uM incubated for 24 hrs by sulforhodamine B assay; format: functional; conditions: read-out: GI
[43] = tested on: OVCAR-5; assay: Antiproliferative activity against human OVCAR-5 cells assessed as cell growth inhibition at 10 uM incubated for 24 hrs by sulforhodamine B assay; format: functional; conditions: read-out: GI
[44] = tested on: DU-145; assay: Antiproliferative activity against human DU-145 cells assessed as cell growth inhibition at 10 uM incubated for 24 hrs by sulforhodamine B assay; format: functional; conditions: read-out: GI

| SMILES | inhibition of growth at 10 µM [1] [%] | inhibition of growth at 10 µM [3] [%] | inhibition of growth at 10 µM [5] [%] | inhibition of growth at 10 µM [6] [%] | inhibition of growth at 10 µM [7] [%] | inhibition of growth at 10 µM [8] [%] | inhibition of growth at 10 µM [9] [%] | inhibition of growth at 10 µM [10] [%] | Ki [12] [µM] | inhibition of growth at 10 µM [13] [%] | inhibition of growth at 10 µM [14] [%] | inhibition of growth at 10 µM [15] [%] | inhibition of growth at 10 µM [16] [%] | inhibition of growth at 10 µM [18] [%] | inhibition of growth at 10 µM [21] [%] | inhibition of growth at 10 µM [22] [%] | inhibition of growth at 10 µM [23] [%] | inhibition of growth at 10 µM [24] [%] | inhibition of growth at 10 µM [25] [%] | inhibition of growth at 10 µM [26] [%] | other results |
| --- | --- | --- | --- | --- | --- | --- | --- | --- | --- | --- | --- | --- | --- | --- | --- | --- | --- | --- | --- | --- | --- |
| CC(C)c1nc(SCC(=O)c2ccccc2)nc(Nc2ccc(S(N)(=O)=O)cc2)c1C#N | 10.1 | 13.8 | 5.93 | 16.5 | 8.76 | 5.5 | 36.3 | 10.2 | 0.0966 | 11.8 | 9.86 | 11.4 | 13.1 | 7.34 | – | – | – | – | – | – | IC50 [2]: 46.4 µM; IC50 [4]: 47.6 µM; inhibition of growth at 10 µM [11]: 5.2%; IC50 [17]: 21 µM; inhibition of growth at 10 µM [19]: 5.58% |
| CC(C)c1nc(SCC(=O)c2ccc(Br)cc2)nc(Nc2ccc(S(N)(=O)=O)cc2)c1C#N | 10.7 | 22.2 | 24.1 | – | 12.2 | 9.41 | 31.2 | 24.3 | 0.38 | 21.1 | 15.3 | 6.24 | 20.2 | 6.53 | 5.21 | 5.41 | 9.23 | 6.95 | 33 | 13.7 | inhibition of growth at 10 µM [20]: 11.7%; inhibition of growth at 10 µM [27]: 9.02%; inhibition of growth at 10 µM [28]: 10.7%; inhibition of growth at 10 µM [29]: 6.52%; inhibition of growth at 10 µM [30]: 7.17%; inhibition of growth at 10 µM [31]: 12.3%; Ki [32]: > 20 µM; inhibition of growth at 10 µM [33]: 12.5% |
| NS(=O)(=O)c1ccc(Nc2cc(-c3ccccc3)nc(SCC(=O)c3ccc(Br)cc3)n2)cc1 | – | – | – | 12.7 | 19.4 | – | 19.4 | – | 0.322 | – | – | 26.9 | – | 9.12 | 5.28 | 13.3 | 22.8 | 8.87 | 10.3 | 15.8 | inhibition of growth at 10 µM [34]: 5.75%; inhibition of growth at 10 µM [35]: 21.8%; inhibition of growth at 10 µM [36]: 8.13%; inhibition of growth at 10 µM [37]: 9.34%; inhibition of growth at 10 µM [38]: 14.2%; inhibition of growth at 10 µM [39]: 15.7%; inhibition of growth at 10 µM [40]: 11.9%; inhibition of growth at 10 µM [41]: 7.75%; inhibition of growth at 10 µM [42]: 6.27%; inhibition of growth at 10 µM [43]: 5.54%; inhibition of growth at 10 µM [44]: 5.84%; inhibition of growth at 10 µM [29]: 7.69%; inhibition of growth at 10 µM [30]: 28.4%; Ki [32]: > 20 µM; inhibition of growth at 10 µM [33]: 8.3% |
